Data taken from patent US20200368322A1, “METHODS OF IDENTIFYING AND USING AGENTS FOR TREATING DISEASES ASSOCIATED WITH INTESTINAL BARRIER DYSFUNCTION” (Yeda Research and Development Co. Ltd., priority 2018, published 2020).
“Also recorded” adds a separate entry of the source. No end group written: not given here.

Assays:
[1] = system: focal adhesions of Caco2 cells; test: Caco2 cell-matrix focal adhesions (paxillin staining); type: cell-based, human; details: for focal adhesions size vs control non treated cells / enlargement of focal adhesions caused by LPS: 1 mM tryptamine, 10 mM L-homo-serine; for enlargement of focal adhesions caused by LPS: with LPS; for focal adhesions size: 10 mM acetyl-proline, 1 mM putrescine, 10 mM histamine, 5 mM spermine
Experimental: (§1) CaCo-2 cells were purchased from ATCC. Cells were routinely grown in regular tissue culture medium (DMEM, 10% FCS, penicillin/streptomycin, GlutaMAX). For experiments with differing glucose concentrations, cells were routinely cultured in low-glucose DMEM (1 g/l glucose). Cells were seeded onto 96-well glass-bottom plates coated with either fibronectin or collagen 70 000 cells/well and allowed to grow for 24 hours to form confluent monolayer before indicated treatments.
(§2) For high resolution images of manually selected representative fields, a DeltaVision wide field fluorescent microscope (GE Healthcare) equipped with 40×UPlanFLN or 60×/1.42 PlanApo N oil objective (Olympus) was used. For multi-well plate scanning, the following automated imaging stations were used: DeltaVision microscope with plate scanning regiment, Hermes imaging station (IDEA bio-Medical) or ImagExpress microXL imaging station (Molecular Devices) equipped by 40× air objectives. In all cases in order to cover the curvature of apical surface of epithelial monolayer 5 μm thick z-stack was acquired around the tight junction plane (identified by best focus algorithm) and resulting image was generated as a maximum projection of all optical sections.

[2] = system: tight junctions of Caco2 cells; test: Caco2 tight junction morphology (cingulin or ZO-1 staining, tortuosity); type: cell-based, human; details: for tight junction distortion caused by LPS: 10 mM taurine, 1 mM tryptamine, 10 mM L-homo-serine, in combination with LPS; for tight junction morphology: 10 mM acetyl-proline, 1 mM putrescine, 10 mM histamine, 5 mM spermine; for tight junction disruption phenotype (type 1 zipper-like, type 2 flower-like): known IBD mediators; for tight junctions morphology (cingulin): 50 ng/ml TNFa, 30 ng/ml IL1-b, 100 ng/ml LPS
Experimental: as §1, §2
(§3) Cell images were segmented using Morphological Segmentation ImageJ plug-in and junction tortuosity was calculated as a ratio between junction length and Euclidian distance between its ends.

[3] = system: Caco2 cells; test: Traction force microscopy; type: cell-based, human; details: Caco2 islands on polyacrylamide hydrogels, 24 hours treatment
Experimental: SoftTrac 6 well plates with pre-made collagen coated 12 kPa hydrogels containing embedded 0.2 μm fluorescent beads were purchased from Matrigen. 200,000 cells per well were plated and allowed to grow for 24 hours to form epithelial islands, treated with the indicated metabolite for another 24 hours and live-imaged using DeltaVision microscope equipped with environmental chamber. After acquisition of cell and fluorescent bead images in steady state conditions, cells were detached with trypsin and imaging of beads was repeated in a relaxed state. Displacement map generation and force calculations were performed using MatLab script described in Butler et al. Am J Physiol Cell Physiol. 2002.

[4] = system: tight junctions of Caco2 cells; test: Human secreted molecules library screen for tight junction modulators; type: cell-based; details: Caco2, 24 hours; ng/ml: TNFa 50, Il-15 25, CCL-20 50, CCL-23 50, FGF-1 25, FGF-10 100, BMP-10 50, UTS-2 10, UCN-1 20, EPO 10, UCN-3 20, IL-21 30, CCL-3 40, TIMP-2 100, FasLG 10
Experimental: as §1, §3
A protein library, consisting of 295 human secreted proteins was used for identification of potential modulators of the barrier function of human intestinal epithelial cells.

With N[C@@H](CCO)C(=O)O [L-homoserine] the “focal adhesions size vs control non treated cells” value [1] was “reduction in focal adhesions size”, the “enlargement of focal adhesions caused by LPS” value [1] was “prevent enlargement focal adhesions caused by LPS treatment” and the “effect on tight junctions in metabolite screen” value (shortened to “effect on tight junctions”) ([2]; Caco2 cells) was “Stabilization”. For the same molecule, the “tight junction distortion caused by LPS” value ([2]; Caco2 cells) was “abolish tight junction distortion caused by LPS treatment alone”.

For CC(=O)N1CCC[C@H]1C(=O)O [N-acetylproline], the focal adhesions size [1] was “increase of focal adhesions size”, the “effect on tight junctions” value ([2]; Caco2 cells) was “Disruption” and the tight junction morphology ([2]; Caco2 cells) was “distortion of tight junction morphology”.

For Cc1ccc2c(c1)C(=O)C1(O)CCN(c3ccccc3)C1=N2 (stereo not shown) [blebbistatin, reference compound], the “focal adhesions enlarged by LPS or histamine” value ([1]; co-treatment with 20 μM blebbistatin) was “reduction of focal adhesions”, the “disruptive effect of LPS and histamine on tight junctions” value ([2]; Caco2 cells, co-treatment with 20 μM blebbistatin) was “abolishes disruptive effect of LPS and histamine on tight junctions” and the “forces applied to the substrate (cell contractility)” value [3] was “cause cell relaxation”.

NCCCNCCCCNCCCN [spermine] was tested, and the focal adhesions size [1] was “increase of focal adhesions size”, the “effect on tight junctions” value ([2]; Caco2 cells) was “Disruption” and the “tight junction disruption phenotype (type 1 zipper-like, type 2 flower-like)” value ([2]; Caco2 cells) was “type 2”. For the same molecule, the tight junction morphology ([2]; Caco2 cells) was “distortion of tight junction morphology” and the “tight junction phenotype in combination with LPS” value ([2]; Caco2 cells, type 2 disruptor plus LPS) was “double effect”.

In the case of NCCc1c[nH]c2ccccc12 [tryptamine], the “focal adhesions size vs control non treated cells” value [1] is reported as “reduction in focal adhesions size”, the “enlargement of focal adhesions caused by LPS” value [1] is reported as “prevent enlargement focal adhesions caused by LPS treatment” and the “recovery of TJ structure on replacement of disruptors with stabilizer” value ([2]; CaCo2 cells pretreated with LPS, histamine or putrescine, even in the presence of the disruptors) is reported as “full recovery of TJ structure”. The “effect on tight junctions” value ([2]; Caco2 cells) was “Stabilization”, the “tight junction distortion caused by LPS” value ([2]; Caco2 cells) was “abolish tight junction distortion caused by LPS treatment alone” and the “disrupting activity of dysbiotic fecal extract” value ([2]; Caco2 cells, extract combined with 1 mM tryptamine or fecal extract from healthy animals) was “neutralized”. For the same molecule, the “forces applied to the substrate (cell contractility)” value [3] was “cause cell relaxation”.

Chemokine ligand 20 [CCL-20] was tested, and the “TJ morphology (cingulin) in secreted molecules screen” value (shortened to “TJ morphology (cingulin)”) [4] was “changes in TJ morphology similar to previously observed upon treatment with known pro-inflammatory mediators”.

Fibroblast growth factor 1 [FGF-1] was tested, and the “TJ morphology (cingulin)” value [4] was “changes in TJ morphology similar to previously observed upon treatment with known pro-inflammatory mediators”.

With “IL1-b: cytokine, known pro-inflammatory IBD mediator” the “tight junctions morphology (cingulin)” value ([2]; Caco2 cells) was “significant alteration in tight junctions morphology”.

Interleukin-15 [Il-15] was tested, and the “TJ morphology (cingulin)” value [4] was “changes in TJ morphology similar to previously observed upon treatment with known pro-inflammatory mediators”.

Interleukin-21 [IL-21] was tested, and the “enlargement of focal adhesions on co-treatment with disruptor” value ([1]; paxilin) was “prevents enlargement of focal adhesions caused by treatments with disruptors only”, the “distortion of tight junctions on co-treatment of stabilizer with disruptor” value ([2]; Caco2 cells, cingulin) was “abolished distortion of tight junctions observed in the treatment with disruptors alone” and the “TJ tortuosity on co-treatment of disruptor with stabilizer” value ([2]; Caco2 cells, N≥200) was “reduces tortuosity to the level of untreated control”. For the same molecule, the “TJ morphology (cingulin)” value [4] was “improvement of TJ morphology in comparison to non-treated control”.

In the case of TNFa, the “tight junction disruption phenotype (type 1 zipper-like, type 2 flower-like)” value ([2]; Caco2 cells) is reported as “type 1”, the “tight junctions morphology (cingulin)” value ([2]; Caco2 cells) is reported as “significant alteration in tight junctions morphology” and the “TJ morphology (cingulin)” value [4] is reported as “changes in TJ morphology similar to previously observed upon treatment with known pro-inflammatory mediators”.

With “Tissue metalloprotease inhibitor 2 [TIMP-2]” the “TJ morphology (cingulin)” value [4] was “improvement of TJ morphology in comparison to non-treated control”.

For “Urocortin 1 (DNPSLSIDLTFHLLRTLLELARTQSQRERAEQNRIIFDSV; ends and bridges not checked; UniProt P55089 83-122, looked up) [UCN-1]”, the “TJ morphology (cingulin)” value [4] was “changes in TJ morphology similar to previously observed upon treatment with known pro-inflammatory mediators”.

With “Urocortin 3 (FTLSLDVPTNIMNLLFNIAKAKNLRAQAAANAHLMAQI; ends and bridges not checked; UniProt Q969E3 120-157, looked up) [UCN-3]” the “TJ morphology (cingulin)” value [4] was “changes in TJ morphology similar to previously observed upon treatment with known pro-inflammatory mediators”.

In the case of “Urotensin 2 (ETPDCFWKYCV; ends and bridges not checked; cysteine pairing not given here; UniProt O95399 114-124, looked up) [UTS-2]”, the “TJ morphology (cingulin)” value [4] is reported as “changes in TJ morphology similar to previously observed upon treatment with known pro-inflammatory mediators”.

B1: Fas ligand (protein, UniProt P48023 130-281, looked up)
Tumor necrosis factor ligand …: QIGHPSPPPEKKELRKVAHLTGKSNSRSMPLEWEDTYGIVLLSGVKYKKGGLVINETGLYFVYSKVYFRGQSCNNLPLSHKVYMRNSKYPQDLVMMEGKMMSYCTTGQMWARSSYLGAVFNLTSADHLYVNVSELSLVNFEESQTFFGLYKL
B1 was tested, and the “TJ morphology (cingulin)” value [4] was “improvement of TJ morphology in comparison to non-treated control”.

B2: Fibroblast growth factor 10 (protein, UniProt O15520 38-208, looked up)
Fibroblast growth factor 10: QALGQDMVSPEATNSSSSSFSSPSSAGRHVRSYNHLQGDVRWRKLFSFTKYFLKIEKNGKVSGTKKENCPYSILEITSVEIGVVAVKAINSNYYLAMNKKGKLYGSKEFNNDCKLKERIEENGYNTYASFNWQHNGRQMYVALNGKGAPRRGQKTRRKNTSAHFLPMVVHS
For B2, the “TJ morphology (cingulin)” value [4] was “changes in TJ morphology similar to previously observed upon treatment with known pro-inflammatory mediators”.

B3: Bone morphogenetic protein 10 (protein, UniProt O95393 317-424, looked up)
Bone morphogenetic protein 10: NAKGNYCKRTPLYIDFKEIGWDSWIIAPPGYEAYECRGVCNYPLAEHLTPTKHAIIQALVHLKNSQKASKACCVPTKLEPISILYLDKGVVTYKFKYEGMAVSECGCR
In the case of B3, the “TJ morphology (cingulin)” value [4] is reported as “changes in TJ morphology similar to previously observed upon treatment with known pro-inflammatory mediators”.

B4: IL-22: human non-inflammatory cytokine (protein, UniProt Q9GZX6 34-179, looked up)
Interleukin-22: APISSHCRLDKSNFQQPYITNRTFMLAKEASLADNNTDVRLIGEKLFHGVSMSERCYLMKQVLNFTLEEVLFPQSDRFQPYMQEVVPFLARLSNRLSTCHIEGDDLHIQRNVQKLKDTVKKLGESGEIKAIGELDLLFMSLRNACI
For B4, the “tight junction morphology on co-treatment with pro-inflammatory agents” value ([2]; Caco2 cells, 100 ng/ml IL-22 plus TNFa, IL1-b or LPS) was “blocked; also recorded: completely restored normal tight junction morphology”.

B5: Chemokine ligand 23 (protein, UniProt P55773 22-120, looked up)
C-C motif chemokine 23: RVTKDAETEFMMSKLPLENPVLLDRFHATSADCCISYTPRSIPCSLLESYFETNSECSKPGVIFLTKKGRRFCANPSDKQVQVCMRMLKLDTRIKTRKN
For B5, the “TJ morphology (cingulin)” value [4] was “changes in TJ morphology similar to previously observed upon treatment with known pro-inflammatory mediators”.

B6: Chemokine ligand 3 (protein, UniProt P10147 24-92, looked up)
C-C motif chemokine 3: SLAADTPTACCFSYTSRQIPQNFIADYFETSSQCSKPGVIFLTKRSRQVCADPSEEWVQKYVSDLELSA
With B6 the “TJ morphology (cingulin)” value [4] was “improvement of TJ morphology in comparison to non-treated control”.
